US20130245110A1, “USE FOR CANNABINOIDS” (priority 2008, published 2013)
Several values for one entry are separate records, joined by “and”; a condition that tells them apart may be missing. Equal entries are not always repeated.

Columns and labels:
pancreatic lipase = target: T1, pancreatic lipase (Homo sapiens, UniProt P16233); details: subjects eating a 30% fat diet; cited from earlier work
T1 construct: host or cells: endogenous enzyme in subjects (in vivo)
T1 sequence (P16233 17-465): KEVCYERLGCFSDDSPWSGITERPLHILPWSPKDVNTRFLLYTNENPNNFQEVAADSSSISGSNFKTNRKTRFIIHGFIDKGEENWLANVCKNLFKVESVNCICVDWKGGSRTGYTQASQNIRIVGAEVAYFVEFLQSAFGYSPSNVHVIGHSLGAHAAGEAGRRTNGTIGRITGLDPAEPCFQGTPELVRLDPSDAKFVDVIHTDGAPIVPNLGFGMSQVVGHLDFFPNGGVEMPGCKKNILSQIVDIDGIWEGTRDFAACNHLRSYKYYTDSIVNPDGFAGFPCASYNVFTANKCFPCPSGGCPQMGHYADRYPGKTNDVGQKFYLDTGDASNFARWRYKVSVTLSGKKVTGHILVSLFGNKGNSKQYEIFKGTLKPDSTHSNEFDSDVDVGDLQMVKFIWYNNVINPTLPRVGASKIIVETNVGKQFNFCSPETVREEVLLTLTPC

[1] = test system: dietary induced obese (DIO) mouse model; assay: 24 h energy expenditure by indirect calorimetry, chronic dosing study; format: in vivo; details: DIO mice; 10 mg·kg−1 p.o.; relative to control, first 12 h post-dosing
From the text: The C57B1/6 mouse fed on a high fat diet for around 12 weeks is a standard model used to evaluate agents likely to affect metabolic disease including obesity, type II diabetes and dyslipidaemia. Thus both potential anti-obesity effects and effects on diabetic and dyslipidaemia parameters will be measured.
(§1) Once the acute studies were complete the mice were grouped in two groups of five mice for the chronic dosing study. Dosing was daily by oral gavage at 09:00-10:00.

[2] = test system: dietary induced obese (DIO) mouse model; assay: Thermic response to food (energy expenditure after Complan meal), chronic dosing study; format: in vivo; set-up: Thermic response to food: unit not given here; details: DIO mice, days 15-17; for Thermic response to food: 10 mg·kg−1 p.o.
From the text: as §1
Energy expenditure consists of basal metabolic rate, exercise-induced energy expenditure, and non-exercise thermogenesis. The latter is the most likely area to be affected by anti-obesity agents. Non-exercise thermogenesis includes the thermic response to food, which in rodents can be measured by examining energy expenditure in response to a meal. This was measured after an oral dose of complan (see methods).

rat isolated aortae = assay: In vitro vascular studies by wire myography

CCCCCCCCCCC[C@@H](C[C@@H]1OC(=O)[C@H]1CCCCCC)OC(=O)[C@H](CC(C)C)NC=O [Orlistat]
Block of triacylglycerol hydrolysis (pancreatic lipase): 30%

Cc1c(C(=O)NN2CCCCC2)nn(-c2ccc(Cl)cc2Cl)c1-c1ccc(Cl)cc1 [rimonabant, reference compound]
Effect on 24 h energy expenditure (days 10-12) [1]: small increase in energy expenditure
Thermic response to food ([2]; Hour 0.44): 1.11 and 1.21 and 2.21
Thermic response to food ([2]; Hour 0.67): 1.38 and 1.56 and 2.67
Thermic response to food ([2]; Hour 4.00): 1.56 and 2.90 and 3.09
Thermic response to food, effect in words ([2]; chronic-study doses (rimonabant 10, pure THCV 0.3 mg·kg−1 p.o.)): without effect

COc1ccc(CCN(C)CCCC(C#N)(c2ccc(OC)c(OC)c2)C(C)C)cc1OC (stereo not shown) [verapamil, reference compound]
Vasorelaxation of pre-constricted vessels (rat isolated aortae): significant vasorelaxation
